Where a name gives a salt, the structure may show the parent alone.
What was measured:
[1] = system: Creatinie phosphokinase (CPK); test: Creatine phosphokinase (CPK) after CaCl2, sodium polystyrenesulfonate and adrenaline in anesthetized dog (Experimental Example 2); type: in vivo; conditions: 0.5 mg/kg previously administered
Method: A dog was anesthetized with 50 mg/kg of sodium pentobarbital and a 0.5% CaCl2 solution was intravenously injected into the femoral vein of the animal at a rate of 1.33 ml/min/10 kg simultaneously with enemiasis of 25 g of sodium polystyrenesulfonate. After 30 min, 0.05 mg/kg of adrenaline was intravenously injected thereto.

[2] = Acute toxicity, LD50, Wistar rat; conditions: in vivo
striated structure = test: Pathological examination of striated structure (Experimental Example 1); type: in vivo, dog; conditions: previously administered, 0.5 mg/kg i.v.
Method: (§1) A dog was anesthetized with 50 mg/kg of sodium pentobarbital and a 2% CaC12 solution was intravenously injected into the femoral vein of the animal at a rate of 1.33 ml/min/10 kg. After 90 min, 0.1 mg, 0.2 mg and 0.3 mg of adrenaline were successively injected thereto intraveneously.
From a pathological viewpoint, the striated structure of a subject was damaged in the case where no bunazosin hydrochloride was previously administered.

Solubility = type: physicochemical
dog = test: Adrenaline-induced ventricular tachycardia/fibrillation after CaCl2 infusion in anesthetized dog (Experimental Example 1); type: in vivo; conditions: 0.5 mg/kg i.v. 12 min before adrenaline, 0.1, 0.2 and 0.3 mg adrenaline successively i.v., 2% CaCl2 infusion
Method: as §1

[3] = Acute toxicity, LD50, ICR mouse; conditions: in vivo

SMILES: CCCC(=O)N1CCCN(c2nc(N)c3cc(OC)c(OC)cc3n2)CC1 [bunazosin hydrochloride]
- CPK, difference from the control ([1]; 60 min after injection of adrenaline): no significant difference from the control
- CPK ([1]; determined 60 min after injection of adrenaline (0.05 mg/kg i.v.)): 85.1±15.6
- LD50 ([2]; im, female, intramuscular): 152 mg/kg
- LD50 ([2]; im, male, intramuscular): 205 mg/kg
- LD50 ([2]; iv, female): 50 mg/kg
- LD50 ([2]; iv, male): 51 to 64 mg/kg
- LD50 ([2]; po, female): 1280 mg/kg
- LD50 ([2]; sc, female, subcutaneous): 365 mg/kg
- LD50 ([2]; sc, male, subcutaneous): 430 mg/kg
- change of striated structure (pathological viewpoint) (striated structure): no change was observed
- solubility (Solubility; absolute ethanol): hardly soluble
- solubility (Solubility; chloroform): almost insoluble
- solubility (Solubility; formic acid): highly soluble
- solubility (Solubility; methanol): not readily soluble
- solubility (Solubility; n-butanol): hardly soluble
- solubility (Solubility; water): not readily soluble
- ventricular tachycardia or ventricular fibrillation (dog): none among ten animals
- LD50 ([3]; im, female, intramuscular): 598 mg/kg
- LD50 ([3]; im, male, intramuscular): 660 mg/kg
- LD50 ([3]; iv, female): 80 mg/kg
- LD50 ([3]; iv, male): 57 mg/kg
- LD50 ([3]; po, female): 1250 mg/kg
- LD50 ([3]; po, male): 1200 mg/kg
- LD50 ([3]; sc, female, subcutaneous): 630 mg/kg
- LD50 ([3]; sc, male, subcutaneous): 730 mg/kg

Reference: patent US4707477A, “Treating and preventing agent for ischemic cardiac disease and arrhythmia” (priority 1985, dated 1987)
